Measured values: patent publication US4228293A, “Iodo-A-23187 derivatives” (Eli Lilly and Company, priority 1978, dated 1980)
“Also recorded” adds a separate entry of the source.

Key:
[1] = tested on: Staphylococcus aureus (H-Heatley strain, NRRL B-314); assay: Antibacterial bioassay (Westhead); format: cell-based; conditions: S. aureus H-Heatley NRRL B-314 bioassay; free acid
Source text: The compounds of this invention are useful antibacterial agents. In this aspect, these compounds may be used in the same manner in which the parent antibiotic is used, as described in U.S. Pat. No. 3,923,823. A bioassay for the antibacterial activity of A-23187 has been described by J. E. Westhead in Antimicrobial Agents and Chemotherapy 11 (5), 916-918 (1977). The test organism for this bioassay is Staphylococcus aureus (H-Heatley strain, NRRL B-314).

[2] = Acute toxicity in mice, intraperitoneal; conditions: mouse, in vivo, ip, mg/kg × 1, free acid
Procedure: The compounds of the present invention are, in general, less toxic than the parent antibiotic. Table II summarizes the acute toxicities of representative compounds in mice, expressed as LD50, when the compounds are administered intraperitoneally.

[3] = molecular target: cation transport ATPase in liver mitochondria; assay: In vitro inhibition of cation transport ATPase in liver mitochondria; format: biochemical
Source text: In yet another aspect, the compounds of this invention are active as inhibitors of the enzyme ATPase. ATPase, an alkali-metal-sensitive enzyme found in cell membranes, is involved in the energy necessary for active transport. "Active transport" refers to the energy-requiring series of operations whereby intracellular and extracellular fluids maintain their compositions. Inhibitors of ATPase reduce the energy required for active transport. Table III summarizes the results of in vitro tests measuring inhibition of cation transport ATPase in liver mitochondria [measured as half effective concentration (Ic50) in mcg/ml].

[4] = cited from earlier work

Structure (SMILES): CNc1ccc2oc(C[C@H]3O[C@@]4(CC[C@H]3C)O[C@H]([C@H](C)C(=O)c3ccc[nH]3)[C@H](C)C[C@H]4C)nc2c1C(=O)O [A-23187]
- Bioassay [1]: 1060 µg/mL
- LD50 [2]: 5.8 mg/kg
- half effective concentration (Ic50), ATPase induced by CaCl2 [3]: 0.5 µg/mL
- half effective concentration (Ic50), ATPase induced by K^+ monazomycin [3]: 0.5 µg/mL
- transport of Mg^2+ compared with Ca^2+ ([4]; Mg^2+ vs Ca^2+): transports Mg^2+ with a similar efficiency to Ca^2+
- discrimination for divalent over monovalent cations ([4]; divalent vs monovalent cations): substantially selective for the transport of divalent over monovalent cations; also recorded: not complete

Structure (SMILES): CNc1ccc2oc(C[C@H]3O[C@@]4(CC[C@H]3C)O[C@H]([C@H](C)C(=O)c3cc(I)c(I)[nH]3)[C@H](C)C[C@H]4C)nc2c1C(=O)O [23,24-diiodo-A-23187, 5-(methylamino)-2-[[3β,9α,11β-trimethyl-8-[1α-methyl-2-oxo-2-(4,5-diiodo-1H-pyrrol-2-yl)ethyl]-1,7-dioxaspiro-[5.5]undec-2β-yl]methyl]-4-benzoxazolecarboxylic acid]
- Bioassay [1]: 560 µg/mL
- LD50 [2]: 100 mg/kg
- half effective concentration (Ic50), ATPase induced by K^+ monazomycin [3]: 0.8 µg/mL

Structure (SMILES): CNc1ccc2oc(C[C@H]3O[C@@]4(CC[C@H]3C)O[C@H]([C@H](C)C(=O)c3cc(I)c[nH]3)[C@H](C)C[C@H]4C)nc2c1C(=O)O [23-iodo-A-23187, 5-(methylamino)-2-[[3β,9α,11β-trimethyl-8-[1α-methyl-2-oxo-2-(4-iodo-1H-pyrrol-2-yl)ethyl]-1,7-dioxaspiro[5.5]undec-2β-yl]methyl]-4-benzoxazolecarboxylic acid]
- Bioassay [1]: 1331 µg/mL
- LD50 [2]: 25 mg/kg
- half effective concentration (Ic50), ATPase induced by CaCl2 [3]: 5 µg/mL
- half effective concentration (Ic50), ATPase induced by K^+ monazomycin [3]: < 0.05 µg/mL
